Positions of bridges follow the written chain, without caps; N, C: chain ends. Non-standard residues stand in square brackets, D forms with d. Residues, ends and D or L forms follow the SMILES beside them. hArg = N=C(N)NCCCC[C@H](N)C(=O)O; Mpa = O=C(O)CCS
What was measured:
Homo sapiens [1] = species on record: Homo sapiens; assay: Liver toxicity in human assessed as induction of drug-induced liver injury by measuring severity class index
Homo sapiens [2] = species on record: Homo sapiens; assay: Liver toxicity in human assessed as induction of drug-induced liver injury by measuring verified drug-induced liver injury concern status
For DILI severity class in this document: key of the grades not given here.

SMILES	DILI_severity_class (Homo sapiens [1])	DILI_Concern (Homo sapiens [2])
CC(C)N(CCC(C(N)=O)(c1ccccc1)c1ccccn1)C(C)C (centres undefined) [DISOPYRAMIDE]	2	Less-Dili-Concern
CC(CCc1ccc(O)cc1)NCCc1ccc(O)c(O)c1 (centres undefined) [DOBUTAMINE]	0	No-Dili-Concern
CC(=O)O[C@@]12CO[C@@H]1C[C@H](O)[C@@]1(C)C(=O)[C@H](O)C3=C(C)[C@@H](OC(=O)[C@H](O)[C@@H](NC(=O)OC(C)(C)C)c4ccccc4)C[C@@](O)([C@@H](OC(=O)c4ccccc4)[C@H]21)C3(C)C [DOCETAXEL ANHYDROUS]	3	Less-Dili-Concern
CN(CCOc1ccc(NS(C)(=O)=O)cc1)CCc1ccc(NS(C)(=O)=O)cc1 [DOFETILIDE]	0	No-Dili-Concern
O=C(O[C@@H]1C[C@@H]2C[C@H]3C[C@H](C1)N2CC3=O)c1c[nH]c2ccccc12 [DOLASETRON]	3	Ambiguous-Dili-Concern
COc1cc2c(cc1OC)C(=O)C(CC1CCN(Cc3ccccc3)CC1)C2 (centres undefined) [DONEPEZIL]	3	Less-Dili-Concern
NCCc1ccc(O)c(O)c1 [DOPAMINE]	0	No-Dili-Concern
C[C@@H](O)[C@H]1C(=O)N2C(C(=O)O)=C(S[C@@H]3CN[C@H](CNS(N)(=O)=O)C3)[C@H](C)[C@H]12 [DORIPENEM]	3	Ambiguous-Dili-Concern
CCN1CC(CCN2CCOCC2)C(c2ccccc2)(c2ccccc2)C1=O (centres undefined) [DOXAPRAM]	0	No-Dili-Concern
COc1cc2nc(N3CCN(C(=O)C4COc5ccccc5O4)CC3)nc(N)c2cc1OC (centres undefined) [DOXAZOSIN]	3	Ambiguous-Dili-Concern
CN(C)CCC=C1c2ccccc2COc2ccccc21 [DOXEPIN]	4	Less-Dili-Concern
C=C1/C(=C\C=C2/CCC[C@]3(C)[C@@H]([C@H](C)/C=C/[C@H](C)C(C)C)CC[C@@H]23)C[C@@H](O)C[C@@H]1O [DOXERCALCIFEROL]	3	Ambiguous-Dili-Concern
COc1cccc2c1C(=O)c1c(O)c3c(c(O)c1C2=O)C[C@@](O)(C(=O)CO)C[C@@H]3O[C@H]1C[C@H](N)[C@H](O)[C@H](C)O1 [DOXORUBICIN]	3	Less-Dili-Concern
C[C@H]1c2cccc(O)c2C(=O)C2=C(O)[C@]3(O)C(=O)C(C(N)=O)=C(O)[C@@H](N(C)C)[C@@H]3[C@@H](O)[C@@H]21.O [DOXYCYCLINE]	3	Less-Dili-Concern
CN(C)CCOC(C)(c1ccccc1)c1ccccn1 (centres undefined) [DOXYLAMINE]	0	No-Dili-Concern
CCCCCc1cc(O)c2c(c1)OC(C)(C)[C@@H]1CCC(C)=C[C@@H]21 [DRONABINOL]	3	Ambiguous-Dili-Concern
CCCCc1oc2ccc(NS(C)(=O)=O)cc2c1C(=O)c1ccc(OCCCN(CCCC)CCCC)cc1 [DRONEDARONE]	7	Most-Dili-Concern
CN1c2c(oc(=O)n(-c3ccccn3)c2=O)-c2ccccc2S1(=O)=O [DROXICAM]	8	Most-Dili-Concern
CNCC[C@H](Oc1cccc2ccccc12)c1cccs1 [DULOXETINE]	8	Most-Dili-Concern

SMILES	DILI_severity_class (Homo sapiens [1])	DILI_Concern (Homo sapiens [2])
C[C@]12C=CC(=O)N[C@@H]1CC[C@@H]1[C@@H]2CC[C@]2(C)[C@@H](C(=O)Nc3cc(C(F)(F)F)ccc3C(F)(F)F)CC[C@@H]12 [DUTASTERIDE]	0	No-Dili-Concern
Cn1c(=O)c2c(ncn2CC(O)CO)n(C)c1=O (centres undefined) [DYPHYLLINE]	0	No-Dili-Concern
NC(N)=Nc1nc(CSCCN/C=N/S(=O)(=O)c2ccc(Br)cc2)cs1 [EBROTIDINE]	8	Most-Dili-Concern
O=C(O)CN(CCN(CC(=O)O)CC(=O)O)CC(=O)O [EDETIC ACID]	3	Ambiguous-Dili-Concern
CC[N+](C)(C)c1cccc(O)c1 [EDROPHONIUM]	0	No-Dili-Concern
O=C1Nc2ccc(Cl)cc2[C@@](C#CC2CC2)(C(F)(F)F)O1 [EFAVIRENZ]	7	Most-Dili-Concern
CC1=NN(c2ccc(C)c(C)c2)C(=O)/C1=N\Nc1cccc(-c2cccc(C(=O)O)c2)c1O.NCCO.NCCO [ELTROMBOPAG OLAMINE]	4	Most-Dili-Concern
Nc1nc(=O)n([C@@H]2CS[C@H](CO)O2)cc1F [EMTRICITABINE]	2	Ambiguous-Dili-Concern
C[C@H](N[C@@H](CCc1ccccc1)C(=O)O)C(=O)N1CCC[C@H]1C(=O)O [ENALAPRILAT ANHYDROUS]	7	Ambiguous-Dili-Concern
CCN(CC)C(=O)/C(C#N)=C/c1cc(O)c(O)c([N+](=O)[O-])c1 [ENTACAPONE]	0	Less-Dili-Concern
CN[C@@H](C)[C@H](O)c1ccccc1 [EPHEDRINE]	0	No-Dili-Concern
CNC[C@H](O)c1ccc(O)c(O)c1 [EPINEPHRINE]	0	No-Dili-Concern
COc1cccc2c1C(=O)c1c(O)c3c(c(O)c1C2=O)C[C@@](O)(C(=O)CO)C[C@@H]3O[C@H]1C[C@H](N)[C@@H](O)[C@H](C)O1 [EPIRUBICIN]	3	Ambiguous-Dili-Concern
COC(=O)[C@@H]1CC2=CC(=O)CC[C@]2(C)[C@@]23O[C@@H]2C[C@@]2(C)[C@@H](CC[C@@]24CCC(=O)O4)[C@H]13 [EPLERENONE]	4	Ambiguous-Dili-Concern
CCCCC[C@H](O)/C=C/[C@@H]1[C@H]2C/C(=C/CCCC(=O)O)O[C@H]2C[C@H]1O [EPOPROSTENOL]	7	Ambiguous-Dili-Concern
CCCCc1ncc(/C=C(\Cc2cccs2)C(=O)O)n1Cc1ccc(C(=O)O)cc1 [EPROSARTAN]	3	Ambiguous-Dili-Concern
N=C(N)NCCCC[C@@H]1NC(=O)CCSSC[C@@H](C(N)=O)NC(=O)[C@@H]2CCCN2C(=O)[C@H](Cc2c[nH]c3ccccc23)NC(=O)[C@H](CC(=O)O)NC(=O)CNC1=O [EPTIFIBATIDE] ([Mpa][hArg]GDWPC-NH2; disulfide 1-7)	0	No-Dili-Concern
C=C1CC[C@H](O)C/C1=C/C=C1\CCC[C@]2(C)[C@@H]([C@H](C)/C=C/[C@H](C)C(C)C)CC[C@@H]12 [ERGOCALCIFEROL]	0	No-Dili-Concern
C#Cc1cccc(Nc2ncnc3cc(OCCOC)c(OCCOC)cc23)c1 [ERLOTINIB]	8	Most-Dili-Concern

SMILES	DILI_severity_class (Homo sapiens [1])	DILI_Concern (Homo sapiens [2])
CC[C@H]1OC(=O)[C@H](C)[C@@H](O[C@H]2C[C@@](C)(OC)[C@@H](O)[C@H](C)O2)[C@H](C)[C@@H](O[C@@H]2O[C@H](C)C[C@H](N(C)C)[C@H]2O)[C@](C)(O)C[C@@H](C)C(=O)[C@H](C)[C@@H](O)[C@]1(C)O [ERYTHROMYCIN]	5	Most-Dili-Concern
CN(C)CCC[C@@]1(c2ccc(F)cc2)OCc2cc(C#N)ccc21 [ESCITALOPRAM]	7	Less-Dili-Concern
COC(=O)CCc1ccc(OCC(O)CNC(C)C)cc1 (centres undefined) [ESMOLOL]	0	No-Dili-Concern
Clc1ccc2c(c1)C(c1ccccc1)=NCc1nncn1-2 [ESTAZOLAM]	0	No-Dili-Concern
C[C@]12CC[C@@H]3c4ccc(O)cc4CC[C@H]3[C@@H]1CC[C@@H]2O [ESTRADIOL]	2	Less-Dili-Concern
C[C@]12CC[C@@H]3c4ccc(OC(=O)N(CCCl)CCCl)cc4CC[C@H]3[C@@H]1CC[C@@H]2O [ESTRAMUSTINE]	4	Most-Dili-Concern
C[C@]12CC[C@@H]3c4ccc(O)cc4CC[C@H]3[C@@H]1CCC2=O [ESTRONE]	2	Ambiguous-Dili-Concern
C1CNCCN1.C[C@]12CC[C@@H]3c4ccc(OS(=O)(=O)O)cc4CC[C@H]3[C@@H]1CCC2=O [ESTROPIPATE]	2	Ambiguous-Dili-Concern
CN1CCN(C(=O)O[C@H]2c3nccnc3C(=O)N2c2ccc(Cl)cn2)CC1 [ESZOPICLONE]	3	Ambiguous-Dili-Concern
C=C(CC)C(=O)c1ccc(OCC(=O)O)c(Cl)c1Cl [ETHACRYNIC ACID]	5	Ambiguous-Dili-Concern
CC[C@@H](CO)NCCN[C@@H](CC)CO [ETHAMBUTOL]	8	Most-Dili-Concern
CCCCCCCC/C=C\CCCCCCCC(=O)O.NCCO [ETHANOLAMINE OLEATE]	0	No-Dili-Concern
CCc1cc(C(N)=S)ccn1 [ETHIONAMIDE]	3	Less-Dili-Concern
CCC1(C)CC(=O)NC1=O (centres undefined) [ETHOSUXIMIDE]	3	Ambiguous-Dili-Concern
CCN1C(=O)NC(c2ccccc2)C1=O (centres undefined) [ETHOTOIN]	3	Ambiguous-Dili-Concern
CC(O)(P(=O)(O)O)P(=O)(O)O [ETIDRONIC ACID]	0	No-Dili-Concern
CCc1cccc2c3c([nH]c12)C(CC)(CC(=O)O)OCC3 (centres undefined) [ETODOLAC]	8	Most-Dili-Concern
CCOC(=O)c1cncn1[C@H](C)c1ccccc1 [ETOMIDATE]	0	No-Dili-Concern
C#C[C@]1(O)CC[C@H]2[C@@H]3CCC4=CC(=O)CC[C@@H]4[C@H]3C(=C)C[C@@]21CC [ETONOGESTREL]	5	Ambiguous-Dili-Concern

Source: ChEMBL document CHEMBL4028802, “DILIrank: the largest reference drug list ranked by the risk for developing drug-induced liver injury in humans” (Drug Discov Today, 2016)
